Test results: ChEMBL document CHEMBL1157539, “Thousands of chemical starting points for antimalarial lead identification” (Nature, 2010)

These molecules were tested on Plasmodium falciparum (assay: GSK_TCMDC: Inhibition of Plasmodium falciparum 3D7 in whole erythrocytes, using parasite LDH activity as an index of growth.). Details: Plasmodium falciparum, 3D7.
Format: functional, organism-based

SMILES	XC50 [nM]
CO/C(=C/C=C/c1cc2cc(Cl)c(Cl)cc2[nH]1)C(=O)NC1CC(C)(C)N(C)C(C)(C)C1	783
C=C1C(C(=O)OCC)=CN(CC)c2cc(O[C@H]3CCN(C(=O)OC(C)(C)C)C3)ccc21	548
COCCn1c(C)cc(C(=O)CN2C(=O)NC(C)(c3ccc(C(C)(C)C)cc3)C2=O)c1C (centres undefined)	475
C[C@@H](CC1CCCCC1)NCc1ccccc1O	932
Cc1ccc(NC(=O)c2ccnc(N3CCN(c4ccncc4)CC3)c2)cc1F	873
O=C(NCC1CCN(Cc2cccc(C(F)(F)F)c2)C1)c1cc(-c2cccc(C(F)(F)F)c2)cs1 (centres undefined)	608
FC(F)(F)c1ccc2[nH]ccc(=NN=Cc3ccc(Cl)cc3)c2c1	791
COc1ccc(Cc2cccc(C(C(=O)NCc3cc(Cl)cc(Cl)c3)N3CCN(C)CC3)c2)cc1 (centres undefined)	694
CCCCCCCN1CC[C@@H](CCCc2ccnc3ccc(OCCC4CCNCC4)cc23)[C@@H](CC)C1	610
CC(C)[C@H]1CC[C@H](C)C[C@@H]1OC(=O)N[C@@H](Cc1ccc(O)cc1)C(=O)NC1CCN(Cc2ccc(OCCCN(C)C)cc2)C1 (some centres undefined)	764
COc1cccc(-c2ccc3c(-c4ccc(F)cc4)cnc(N)c3c2)c1	807
O=C(NCc1cccc(F)c1)Nc1ccc(-c2ccc(-c3nc4cc(C(F)(F)F)ccc4[nH]3)cc2)cc1	769
Oc1ccccc1CNC1CCCCC1NCc1ccccc1O (centres undefined)	950
COc1ccc2c(=NN=Cc3ccccc3F)cc(C)[nH]c2c1	997
CC(C)CCNC(=O)c1cnc2c(O)cccc2c1Nc1cccc(NC(=O)c2ccc(F)cc2)c1	913
O=C(NCc1cccs1)[C@H](Cc1ccccc1)Nc1ccnc(NCC2CCCCC2)n1	1050
O=C(NCCCCCN1CCCN(C(=O)Nc2ccc(Cl)c(C(F)(F)F)c2)CC1)C1CC1c1ccc(Cl)c(Cl)c1 (centres undefined)	852
O=C(CSc1nc(-c2ccccc2Cl)ns1)Nc1ccc2c(c1)OCO2	988
CN(CCCN(C)c1cc(NC(=O)c2ccc(F)cc2)ccn1)Cc1cccc(O)c1	1210
CC(C)c1sc(N2CCN(C)CC2)nc1C(=O)Nc1ccc(F)cc1C(F)(F)F	190
CC(C)N1CCN(C(=O)c2ccc(CNCCCN3CCN(c4cccc(Cl)c4Cl)CC3)s2)CC1	716
CC1(C)CN2CCCC2c2cc(NC(=O)/C=C/c3ccccc3Cl)ccc21 (centres undefined)	991
CS(=O)(=O)NCCCNCc1cccc(-c2ccc(-c3nc4cc(C(F)(F)F)ccc4[nH]3)cc2)c1	996
CN1CCN(CCCN(Cc2csc(-c3ccc(CNCc4ccccc4)cc3)n2)C(=O)Nc2cc(Cl)cc(Cl)c2)CC1	700
CCOc1cc(C)ccc1C1CCN(CCCCNC(=O)c2coc(-c3ccc(Cl)cc3)c2)CC1	914

SMILES	XC50 [nM]
COc1cc2ncnc(Nc3ccc(OCc4ccccc4)c(I)c3)c2cc1OC	712
CCCCC(=O)Nc1nonc1-c1ccc(OCC)c(OCC)c1	912
CCCCNC(=O)[C@H](CC1CCCCC1)NC(=O)c1ccc(O)c(-c2cccc(C(F)(F)F)c2)c1	773
CCCNCc1ccc(-c2ccc(CN(CCOC)C(=O)COc3ccccc3Cl)cc2)nc1	912
CO/C(=C\C=C\c1cc2cc(Cl)c(Cl)cc2[nH]1)C(=O)NCCCN1CCN(c2cccc(OCC(=O)Nc3cccc(C(=O)c4ccccc4)c3)c2)CC1	686
CCC(C)C#Cc1c(C)nc(N)nc1N (centres undefined)	262
COc1cccc(CNc2ncc(-c3ccsc3)c(-c3nccs3)n2)c1	422
Cc1nc(-c2cccc(C(=O)N(Cc3cncn3Cc3cccc(C(F)(F)F)c3)CC3CC3)c2)cs1	941
COc1cccc(-c2nn(C)c3sc(C(=O)NCCN(C)Cc4ccccc4)cc23)c1	814
Cc1ccoc1C(=O)Nc1cccc(-c2cccc(-c3nc4cc(C(F)(F)F)ccc4[nH]3)c2)c1	613
O=C(CCOc1ccccc1)NCC1CCCO1 (centres undefined)	1000
O=C(NCCCCN1CCC(c2ccc3c(c2OCC2CC2)CCCC3)CC1)c1ccc(NC(=O)c2ccc(Cl)cc2)cc1	680
COc1ccc(N2CCN(CCCCNC(=O)c3ccc(NC(=O)c4ccc(Cl)cc4)cc3)CC2)c(C)c1	758
N#Cc1ccc(Sc2nnc(-c3ccccc3Cl)n2CC2CCCCC2)cc1[N+](=O)[O-]	1160
COc1cc2nc(N3CCC(CNC(=O)c4cccc5cc[nH]c45)CC3)nc(N)c2cc1OC	1580
CCN(CC(C)O)C(=O)c1ccc(-c2cccc(-c3nc4cccc(C)c4[nH]3)c2)cc1 (centres undefined)	639
Cc1cccc2nc(-c3cccc(-c4cccc(CNC(C)C)c4)c3)[nH]c12	336
COc1ccc(C(=O)Nc2cc(Br)c3c(c2)CNCC3)cc1Br	915
CN(C)CCN(Cc1ccc(-c2ccc(CNCCc3ccccc3)cc2)nc1)C(=O)CCC1CCCC1	799
N#Cc1ccc2c(c1)CCN(CCC1CCC(NC(=O)/C=C/c3cccc4cc[nH]c34)CC1)CC2 (centres undefined)	1090
OC(CN(Cc1ccccc1)Cc1ccccc1)Cn1c2ccc(Cl)cc2c2cc(Cl)ccc21 (centres undefined)	995
CCc1cc(NC2CCN(C)CC2)nc(Nc2cccc(OC)c2)n1	856
FC(F)(F)c1ccc2[nH]c(-c3cccc(-c4ccc(CNCC5CCCO5)cc4)c3)nc2c1 (centres undefined)	277
CCCC(CNC(=O)c1cc2c(Cl)cc(Cl)cc2[nH]1)CNc1cc(=O)c2ccccc2[nH]1 (centres undefined)	903
Clc1nc(Cl)c2c(ccn2Cc2ccccc2)n1	787

SMILES	XC50 [nM]
NC(=O)c1ccccc1OCC(=O)Nc1cccc(-c2ccc(-c3nc4cc(C(F)(F)F)ccc4[nH]3)cc2)c1	647
N#Cc1ccc(CN2CCC(Oc3ccc(NC(=O)c4ccco4)cc3Cl)CC2)cc1	379
O=C(/C=C/c1ccccc1F)NC1CCC(CCN2CCc3ccc(-c4cccnc4)cc3CC2)CC1 (centres undefined)	900
O=C(/C=C/c1ccc(Cl)c(Cl)c1)NCCCCCCN1CCCN(C(=O)Nc2ccc(C(F)(F)F)cc2)CC1	579
O=C(Nc1ccc(Br)cc1)N(CCN1CCOCC1)CC(O)COCc1ccc(Cl)c(Cl)c1 (centres undefined)	929
CCCCCN1CCC(NS(=O)(=O)c2cccc(C(=O)Nc3cccc(C(F)(F)F)c3)c2)C1 (centres undefined)	826
CC(C)CCNc1nc(NCc2ccccc2)c2cc(O)ccc2n1	105
FC(F)(F)c1ccc2[nH]c(-c3ccc(-c4cccc(CNCc5ccccc5)c4)s3)nc2c1	153
NCCNc1ccc([N+](=O)[O-])cc1C(=O)Nc1cccc(Cl)c1	1260
Fc1ccc(Nc2ccnc3cc(I)ccc23)c(Cl)c1	1080
Cc1noc(C)c1-c1ccc2c(Nc3ccccc3C(C)(C)C)c(C(=O)NCc3ccc4c(c3)OCO4)cnc2c1	912
O=c1[nH]c2c(cc1CNC1CCCCC1)c(-c1ccc(F)cc1)nn2-c1ccccc1	804
COC(=O)CNC(c1ccccc1)c1cc(Br)ccc1NC(=O)c1ccccc1Br (centres undefined)	988
Cc1ccccc1CNc1noc(-c2c(-c3ccccc3)noc2C)n1	902
CC(C)NCc1ccc(-c2ccc(-c3nc4cc(C(F)(F)F)ccc4[nH]3)cc2)cc1	266
OC(CNCCCc1ccccc1)c1cc(OCc2ccccc2)cc(OCc2ccccc2)c1 (centres undefined)	851
NC1CCCN(Cc2ccc(-c3ccc(-c4nc5cc(F)ccc5[nH]4)s3)cc2)C1 (centres undefined)	177
COc1ccc(Br)cc1/C=C/C(=O)Nc1cccc(C2CCN(C)CC2)c1	523
O=C(Nc1cccc(-c2ccc(-c3nc4cc(C(F)(F)F)ccc4[nH]3)cc2)c1)c1c[nH]cn1	966
OC(CNCc1ccccc1)c1cc(OCc2ccccc2)cc(OCc2ccccc2)c1 (centres undefined)	1000
COc1ccc(NC(=O)c2ccc(C=Cc3ccc(C(F)(F)F)cc3)cc2)cc1N1CCN(C)CC1	421
O=C(C=Cc1ccc(Cl)c(Cl)c1)NCCCCCN1CCC(CCNC(=O)/C=C/c2ccccc2)CC1	783
CC(C)CCn1c(Sc2ccc([N+](=O)[O-])cc2C(F)(F)F)nnc1-c1ccccc1Cl	919
CNC(=O)c1c(NC(=O)c2cccs2)sc2c1CCCC2	818
CC(C)c1ccc(NC(S)=NN=Cc2ccccn2)cc1	724

SMILES	XC50 [nM]
COc1ccccc1C(=O)Nc1cccc(N2CCC(NCc3ccc(-n4cccn4)cc3)CC2)c1	1190
COc1ccc2c(=NN=Cc3cccnc3)cc(C)[nH]c2c1	993
Cc1cc(NC(=O)NCCN2CCC(NS(=O)(=O)c3ccc(C(F)(F)F)cc3)C2)c2ccccc2n1 (centres undefined)	645
COc1ccc(-c2nc(NC(=O)Cc3cccc(OC)c3)sc2C)cc1	237
O=C(Nc1cccc(-c2nn3ncccc3c2-c2ccnc(Nc3ccccc3)n2)c1)c1c(F)cccc1F	726
CC(C)(C)c1ccc(NC(=O)c2ccc(CN3CCCN(Cc4cccc(Cl)c4)CC3)cc2)cc1	972
O=C(C=Cc1ccc(Cl)c(Cl)c1)NCCCCCN1CCC(CCCNS(=O)(=O)c2cccc(C(F)(F)F)c2)CC1	477
C(=N\Nc1nccc2sc(-c3cccnc3)cc12)/c1ccncc1	213
O=C(Nc1cc(C(F)(F)F)cc(C(F)(F)F)c1)c1cccc([N+](=O)[O-])c1	895
O=C(Nc1ccc(OC2CCN(Cc3ccc(F)cc3)CC2)c(Cl)c1)c1ccoc1	1180
CCCCNc1c(C(=O)OCC)c(C)nc2c1[nH]c1ccccc12	680
Fc1ccc(Nc2ccnc3cc(-c4cccc(CNCCN5CCOCC5)c4)ccc23)c(Cl)c1	142
Oc1ccc(CCCNc2nc(NCc3cccc4ccccc34)nc(N3CCCNCC3)n2)cc1	987
Cc1ccc(-c2noc(COc3ccccc3C(=O)NC3CCCC3)n2)cc1	882
CCN(CCCNc1nc(=S)[nH]c2cc(OC)c(OC)cc12)c1ccccc1	721
N#Cc1ccc(N(CC(=O)NCCc2ccccc2)CC2CC2)c2ccccc12	734
Cc1ccc(C(c2nnnn2C2CCCC2)N(Cc2ccco2)Cc2ccccc2Cl)cc1 (centres undefined)	959
Cc1ccc(Sc2ccc(NC(=O)CN3CCN(C(=O)c4ccco4)CC3)cc2)cc1C	911
CCCc1ccccc1Nc1nc(C)cc(N(CC)CCCN2CCCCC2)n1	622
Cc1nc(-c2nc(NCCc3c(C)noc3C)ncc2-c2ccsc2)sc1C	256
CN(C)CCNC(=O)c1ccc(-c2cnc3ccc(NCc4ccc(Cl)c(Cl)c4)nn23)cc1	913
O=C(Nc1nc(-c2ccccn2)cs1)c1ccc(S(=O)(=O)N2CCc3ccccc32)cc1	830
O=C(NCCCCN1CCC2c3cccc(O)c3CCC21)c1ccc(-c2ccccc2)cc1 (centres undefined)	1380
O=S(=O)(NCCN1CCCC1)c1ccc(-c2cccc(CNCCc3cccs3)c2)cc1	928
